# Legend:
# human P2X7 receptor [1] = target: T1, human P2X7 receptor (Homo sapiens, UniProt Q99572); test: Radioligand competition binding assay using [^123I]TZ6019
# T1 sequence (Q99572 1-595): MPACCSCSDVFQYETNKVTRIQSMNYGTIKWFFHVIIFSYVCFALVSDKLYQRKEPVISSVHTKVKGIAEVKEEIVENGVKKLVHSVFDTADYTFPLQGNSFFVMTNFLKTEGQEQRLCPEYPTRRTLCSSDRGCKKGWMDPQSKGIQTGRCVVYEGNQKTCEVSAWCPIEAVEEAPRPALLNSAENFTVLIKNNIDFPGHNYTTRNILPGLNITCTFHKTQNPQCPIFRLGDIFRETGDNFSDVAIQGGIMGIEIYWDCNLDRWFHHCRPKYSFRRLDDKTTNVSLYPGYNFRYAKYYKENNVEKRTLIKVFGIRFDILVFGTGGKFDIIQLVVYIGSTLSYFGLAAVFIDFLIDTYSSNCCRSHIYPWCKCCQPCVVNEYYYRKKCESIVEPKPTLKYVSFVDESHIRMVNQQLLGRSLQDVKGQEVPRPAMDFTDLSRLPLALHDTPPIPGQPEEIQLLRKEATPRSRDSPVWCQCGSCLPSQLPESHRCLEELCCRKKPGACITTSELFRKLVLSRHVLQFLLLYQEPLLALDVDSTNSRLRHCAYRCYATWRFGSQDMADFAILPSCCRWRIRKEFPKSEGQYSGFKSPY
# human P2X7 receptor [2] = target: T1, human P2X7 receptor; test: Ethidium bromide uptake fluorescence assay; format: cell-based
# human P2X7 receptor [3] = target: T1, human P2X7 receptor; test: Radioligand competition binding assay using [^3H]A804598
# human P2X7 receptor [4] = target: T1, human P2X7 receptor; conditions: carbon-11 labeled radioligand; ref Gao et al., 2015; Ory et al., 2016; cited from earlier work
# rodents P2X7 receptor = conditions: carbon-11 labeled radioligand; ref Gao et al., 2015; Ory et al., 2016; cited from earlier work
# human P2X7 receptor [5] = target: T1, human P2X7 receptor; test: Radioligand saturation binding assay with [^123I]TZ6019
# P2X7 receptor = target: T2, P2X7 receptor (Mus musculus, UniProt Q9Z1M0); test: In vitro autoradiography of P301S and wild type mouse brain slices; format: binding; conditions: for P2X7 receptor expression quantified by autoradiography: mean ± S.D., n = 3
# T2 sequence (Q9Z1M0 1-595): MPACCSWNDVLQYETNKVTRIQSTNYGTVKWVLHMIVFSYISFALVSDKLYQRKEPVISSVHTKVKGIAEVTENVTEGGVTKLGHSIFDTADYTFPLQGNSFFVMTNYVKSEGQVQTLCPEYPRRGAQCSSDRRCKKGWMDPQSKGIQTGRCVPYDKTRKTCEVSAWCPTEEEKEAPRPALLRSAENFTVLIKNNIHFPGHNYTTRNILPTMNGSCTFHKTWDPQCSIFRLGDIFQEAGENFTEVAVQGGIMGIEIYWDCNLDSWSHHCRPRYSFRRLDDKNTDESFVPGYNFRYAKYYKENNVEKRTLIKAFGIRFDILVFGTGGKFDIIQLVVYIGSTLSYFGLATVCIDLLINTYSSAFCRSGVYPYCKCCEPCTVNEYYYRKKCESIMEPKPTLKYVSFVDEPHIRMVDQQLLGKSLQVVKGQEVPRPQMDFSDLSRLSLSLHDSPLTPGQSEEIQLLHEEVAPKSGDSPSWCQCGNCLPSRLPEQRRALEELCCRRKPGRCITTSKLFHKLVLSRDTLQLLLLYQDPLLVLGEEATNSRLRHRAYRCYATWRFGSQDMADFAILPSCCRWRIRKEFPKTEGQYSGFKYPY
smiles,measurement,setting,value
"CN1C(=O)CC[C@H]1C(=O)NCc1cccc(C(F)(F)F)c1Cl [GSK1482160, reference compound]",IC50,human P2X7 receptor [1],4.3 ± 0.9 nM
same,IC50,human P2X7 receptor [2],2.1 ± 0.3 nM
same,IC50,human P2X7 receptor [3],8.65 ± 1 nM
same,binding to human P2X7 receptor,human P2X7 receptor [4],tight binding
same,binding to rodents P2X7 receptor,rodents P2X7 receptor,weak binding
"O=C(NCc1cccc(C(F)(F)F)c1Cl)[C@@H]1CCC(=O)N1C/C=C/I [TZ6019, (S,E)-N-(2-chloro-3-(trifluoromethyl)benzyl)-1-(3-iodoallyl)-5-oxopyrrolidine-2-carboxamide]",IC50,human P2X7 receptor [1],9.49 ± 1.4 nM
same,fold lower binding potency than GSK1482160,human P2X7 receptor [2]; ratio of ethidium bromide assay IC50 values,5 fold
same,IC50,human P2X7 receptor [3],12.9 ± 2 nM
O=C(NCc1cccc(C(F)(F)F)c1Cl)[C@@H]1CCC(=O)N1C/C=C/I [[^123I]TZ6019],Kd,"human P2X7 receptor [5]; read-out: Kd (saturation binding), HEK-293-hP2X7R cells, one-site fit, n = 3",19.3 ± 2.8 nM
O=C(NCc1cccc(C(F)(F)F)c1Cl)[C@@H]1CCC(=O)N1C/C=C/[123I] [[^123I]TZ6019],specific binding as fraction of total binding,"human P2X7 receptor [5]; saturation binding, nonspecific defined with 100 µM GSK1482160",approximately 40%
same,fold higher autoradiography binding in P301S than wild type mice,P2X7 receptor; Cortex,2.4 fold
same,P2X7 receptor expression quantified by autoradiography,"P2X7 receptor; Cortex, P301S mice",330.53 ± 91.08 PSL/mm^2
same,P2X7 receptor expression quantified by autoradiography,"P2X7 receptor; Cortex, Wild type mice",135.23 ± 32.55 PSL/mm^2
same,P2X7 receptor expression quantified by autoradiography,"P2X7 receptor; Hippocampus, P301S mice, 9-month-old",255.05 ± 10.90 PSL/mm^2
same,P2X7 receptor expression quantified by autoradiography,"P2X7 receptor; Hippocampus, Wild type mice, 9-month-old",154.18 ± 16.14 PSL/mm^2
same,P2X7 receptor expression quantified by autoradiography,"P2X7 receptor; Thalamus, P301S mice",337.98 ± 93.45 PSL/mm^2
same,P2X7 receptor expression quantified by autoradiography,"P2X7 receptor; Thalamus, Wild type mice",187.41 ± 61.02 PSL/mm^2
same,P2X7 receptor expression quantified by autoradiography,"P2X7 receptor; Total brain, P301S mice",260.86 ± 48.93 PSL/mm^2
same,P2X7 receptor expression quantified by autoradiography,"P2X7 receptor; Total brain, Wild type mice",193.05 ± 39.92 PSL/mm^2
same,increase of binding in brain of P301S mice compared to wild type controls,"P2X7 receptor; brain, n = 3, p = 0.04",35%
